# Patent US7273848B2, “Apolipoprotein A-I agonists and their use to treat dyslipidemic disorders” (priority 1997, dated 2007)
# Non-standard residues stand in square brackets, D forms with d. Residues, ends and D or L forms follow the SMILES beside them. Aib = CC(C)(N)C(=O)O
# Target: T1, LCAT (purified from human plasma) (Homo sapiens, UniProt P04180)
# T1 construct: from tissue; host or cells: human plasma
# T1 sequence (P04180 25-440): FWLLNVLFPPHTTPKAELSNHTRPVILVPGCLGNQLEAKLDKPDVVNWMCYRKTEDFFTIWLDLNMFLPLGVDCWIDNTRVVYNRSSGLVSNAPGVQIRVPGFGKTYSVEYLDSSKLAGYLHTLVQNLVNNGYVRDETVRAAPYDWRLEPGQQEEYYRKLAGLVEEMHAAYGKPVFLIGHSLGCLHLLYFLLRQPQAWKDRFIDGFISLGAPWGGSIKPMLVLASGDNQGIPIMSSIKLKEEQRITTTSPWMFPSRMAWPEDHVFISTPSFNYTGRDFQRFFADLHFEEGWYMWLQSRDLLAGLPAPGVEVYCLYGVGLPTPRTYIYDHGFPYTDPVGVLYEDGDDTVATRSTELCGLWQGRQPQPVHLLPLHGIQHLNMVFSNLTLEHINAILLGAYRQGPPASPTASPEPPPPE
# Assay: LCAT activation assay
# Format: biochemical
# Details: LCAT activation as compared with native human ApoA-I (= 100%), equivalent masses
# In short: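 Activity was expressed as percentage conversion of radiolabelled cholesterol to cholesteryl ester, normalised to native ApoA-I as 100%. LCAT purified from human plasma was added to peptide-preincubated EPC or POPC/cholesterol (20:1) small unilamellar vesicles at pH 7.4. Specific activity is the peptide concentration reaching the conversion plateau at a fixed timepoint.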
row,SMILES,ACTIVITY (%) LCAT [%]
1,"CC(C)C[C@H](NC(=O)[C@H](C)NC(=O)[C@H](CCC(=O)O)NC(=O)[C@H](CC(C)C)NC(=O)C(C)(C)NC(=O)[C@H](CCC(=O)O)NC(=O)[C@H](CC(N)=O)NC(=O)[C@H](CC(C)C)NC(=O)[C@H](CCCCN)NC(=O)[C@H](CCC(=O)O)NC(=O)[C@H](CCCNC(=N)N)NC(=O)[C@H](Cc1ccccc1)NC(=O)[C@H](CCC(=O)O)NC(=O)[C@@H](N)CC(=O)O)C(=O)N[C@@H](CCCCN)C(=O)N[C@@H](CCC(N)=O)C(=O)N[C@@H](CCCCN)C(=O)N[C@@H](CC(C)C)C(=O)N[C@@H](CCCCN)C(=O)O [compound 90, ~~~DEFREKLNEXLEALKQKLK] (H-DEFREKLNE[Aib]LEALKQKLK-OH)",6
2,"CC(C)C[C@H](NC(=O)[C@H](C)NC(=O)[C@H](CCC(=O)O)NC(=O)[C@H](CC(C)C)NC(=O)C(C)(C)NC(=O)[C@H](CCC(=O)O)NC(=O)[C@H](CC(N)=O)NC(=O)[C@H](Cc1ccc(O)cc1)NC(=O)[C@H](CC(C)C)NC(=O)[C@H](CCC(=O)O)NC(=O)[C@H](CCCNC(=N)N)NC(=O)[C@H](Cc1ccccc1)NC(=O)[C@H](CCC(=O)O)NC(=O)[C@H](CC(=O)O)NC(=O)[C@H](CC(C)C)NC(=O)[C@@H](NC(=O)[C@@H]1CCCN1)C(C)C)C(=O)N[C@@H](CCCCN)C(=O)N[C@@H](CCC(N)=O)C(=O)N[C@@H](CCCCN)C(=O)N[C@@H](CC(C)C)C(=O)N[C@@H](CCCCN)C(=O)O [compound 92, PVLDEFRELYNEXLEALKQKLK] (H-PVLDEFRELYNE[Aib]LEALKQKLK-OH)",5
3,"CC(C)C[C@H](NC(=O)[C@H](C)NC(=O)[C@H](CCCCN)NC(=O)[C@H](CC(C)C)NC(=O)C(C)(C)NC(=O)[C@H](CCC(=O)O)NC(=O)[C@H](CC(N)=O)NC(=O)[C@H](CC(C)C)NC(=O)[C@H](CCCCN)NC(=O)[C@H](CCC(=O)O)NC(=O)[C@H](CCCNC(=N)N)NC(=O)[C@H](Cc1ccccc1)NC(=O)[C@H](CCC(=O)O)NC(=O)[C@H](CC(=O)O)NC(=O)[C@H](CC(C)C)NC(=O)[C@@H](NC(=O)[C@@H]1CCCN1)C(C)C)C(=O)N[C@@H](CCCCN)C(=O)N[C@@H](CCC(N)=O)C(=O)N[C@@H](CCCCN)C(=O)N[C@@H](CC(C)C)C(=O)N[C@@H](CCCCN)C(=O)O [compound 93, PVLDEFREKLNEXLKALKQKLK] (H-PVLDEFREKLNE[Aib]LKALKQKLK-OH)",5
4,"CC(C)C[C@H](NC(=O)[C@H](C)NC(=O)[C@H](CCC(=O)O)NC(=O)[C@H](CC(C)C)NC(=O)C(C)(C)NC(=O)[C@H](CC(C)C)NC(=O)[C@H](CC(N)=O)NC(=O)[C@H](CC(C)C)NC(=O)[C@H](CC(C)C)NC(=O)[C@H](CCC(=O)O)NC(=O)[C@H](CCCNC(=N)N)NC(=O)[C@H](Cc1ccccc1)NC(=O)[C@H](CC(C)C)NC(=O)[C@H](CC(=O)O)NC(=O)[C@H](CC(C)C)NC(=O)[C@@H](NC(=O)[C@@H]1CCCN1)C(C)C)C(=O)N[C@@H](CCCCN)C(=O)N[C@@H](CCC(N)=O)C(=O)N[C@@H](CCCCN)C(=O)N[C@@H](CC(C)C)C(=O)N[C@@H](CCCCN)C(=O)O [compound 95, PVLDLFRELLNLXLEALKQKLK] (H-PVLDLFRELLNL[Aib]LEALKQKLK-OH)",5
5,"CC(C)C[C@H](NC(=O)[C@H](C)NC(=O)[C@H](CCC(=O)O)NC(=O)[C@H](CC(C)C)NC(=O)C(C)(C)NC(=O)[C@H](Cc1c[nH]c2ccccc12)NC(=O)[C@H](CC(N)=O)NC(=O)[C@H](CC(C)C)NC(=O)[C@H](CC(C)C)NC(=O)[C@H](CCC(=O)O)NC(=O)[C@H](CCCNC(=N)N)NC(=O)[C@H](Cc1ccccc1)NC(=O)[C@H](CC(C)C)NC(=O)[C@H](CC(=O)O)NC(=O)[C@H](CC(C)C)NC(=O)[C@@H](NC(=O)[C@@H]1CCCN1)C(C)C)C(=O)N[C@@H](CCCCN)C(=O)N[C@@H](CCC(N)=O)C(=O)N[C@@H](CCCCN)C(=O)N[C@@H](CC(C)C)C(=O)N[C@@H](CCCCN)C(=O)O [compound 101, PVLDLFRELLNWXLEALKQKLK] (H-PVLDLFRELLNW[Aib]LEALKQKLK-OH)",2
6,"CC(C)C[C@H](NC(=O)[C@H](C)NC(=O)[C@H](CCC(=O)O)NC(=O)[C@H](CC(C)C)NC(=O)C(C)(C)NC(=O)[C@H](CC(C)C)NC(=O)[C@H](CC(N)=O)NC(=O)[C@H](CC(C)C)NC(=O)[C@H](CC(C)C)NC(=O)[C@H](CCC(=O)O)NC(=O)[C@H](CCCNC(=N)N)NC(=O)[C@H](Cc1ccccc1)NC(=O)[C@H](CC(C)C)NC(=O)[C@H](CC(=O)O)NC(=O)[C@H](CC(C)C)NC(=O)[C@@H](NC(=O)[C@@H]1CCCN1)C(C)C)C(=O)N[C@@H](CCCCN)C(=O)N[C@@H](CCC(=O)O)C(=O)N[C@@H](CCCCN)C(=O)N[C@@H](CC(C)C)C(=O)N[C@@H](CCCCN)C(=O)O [compound 102, PVLDLFRELLNLXLEALKEKLK] (H-PVLDLFRELLNL[Aib]LEALKEKLK-OH)",2
7,"CC(C)C[C@H](NC(=O)[C@H](C)NC(=O)[C@H](CCC(=O)O)NC(=O)C(C)(C)NC(=O)C(C)(C)NC(=O)[C@H](CCC(=O)O)NC(=O)[C@H](CC(N)=O)NC(=O)[C@H](CC(C)C)NC(=O)[C@H](CCCCN)NC(=O)[C@H](CCC(=O)O)NC(=O)[C@H](CCCNC(=N)N)NC(=O)[C@H](Cc1ccccc1)NC(=O)[C@H](CCC(=O)O)NC(=O)[C@H](CC(=O)O)NC(=O)[C@H](CC(C)C)NC(=O)[C@@H](NC(=O)[C@@H]1CCCN1)C(C)C)C(=O)N[C@@H](CCCCN)C(=O)N[C@@H](CCC(N)=O)C(=O)N[C@@H](CCCCN)C(=O)N[C@@H](CC(C)C)C(=O)N[C@@H](CCCCN)C(=O)O [compound 110, PVLDEFREKLNEXXEALKQKLK] (H-PVLDEFREKLNE[Aib][Aib]EALKQKLK-OH)",0
8,"CC(C)C[C@H](NC(=O)[C@H](C)NC(=O)[C@H](CCC(=O)O)NC(=O)[C@H](Cc1c[nH]c2ccccc12)NC(=O)C(C)(C)NC(=O)[C@H](CCC(=O)O)NC(=O)[C@H](Cc1c[nH]c2ccccc12)NC(=O)[C@H](CC(C)C)NC(=O)[C@H](CCCCN)NC(=O)[C@H](CCC(=O)O)NC(=O)[C@H](CCCNC(=N)N)NC(=O)[C@H](Cc1ccccc1)NC(=O)[C@H](CCC(=O)O)NC(=O)[C@H](CC(=O)O)NC(=O)[C@H](CC(C)C)NC(=O)[C@@H](NC(=O)[C@@H]1CCCN1)C(C)C)C(=O)N[C@@H](CCCCN)C(=O)N[C@@H](CCC(N)=O)C(=O)N[C@@H](CCCCN)C(=O)N[C@@H](CC(C)C)C(=O)N[C@@H](CCCCN)C(=O)O [compound 111, PVLDEFREKLWEXWEALKQKLK] (H-PVLDEFREKLWE[Aib]WEALKQKLK-OH)",0
9,"CC(C)C[C@H](NC(=O)[C@H](C)NC(=O)[C@H](CCC(=O)O)NC(=O)[C@H](CO)NC(=O)C(C)(C)NC(=O)[C@H](CCC(=O)O)NC(=O)[C@H](CC(N)=O)NC(=O)[C@H](CC(C)C)NC(=O)[C@H](CCCCN)NC(=O)[C@H](CCC(=O)O)NC(=O)[C@H](CCCNC(=N)N)NC(=O)[C@H](Cc1ccccc1)NC(=O)[C@H](CCC(=O)O)NC(=O)[C@H](CC(=O)O)NC(=O)[C@H](CC(C)C)NC(=O)[C@@H](NC(=O)[C@@H]1CCCN1)C(C)C)C(=O)N[C@@H](CCCCN)C(=O)N[C@@H](CCC(N)=O)C(=O)N[C@@H](CCCCN)C(=O)N[C@@H](CC(C)C)C(=O)N[C@@H](CCCCN)C(=O)O [compound 112, PVLDEFREKLNEXSEALKQKLK] (H-PVLDEFREKLNE[Aib]SEALKQKLK-OH)",0
10,"CSCC[C@H](NC(=O)C(C)(C)NC(=O)[C@H](CCC(=O)O)NC(=O)[C@H](CC(N)=O)NC(=O)[C@H](CC(C)C)NC(=O)[C@H](CCCCN)NC(=O)[C@H](CCC(=O)O)NC(=O)[C@H](CCCNC(=N)N)NC(=O)[C@H](Cc1ccccc1)NC(=O)[C@H](CCC(=O)O)NC(=O)[C@H](CC(=O)O)NC(=O)[C@H](CC(C)C)NC(=O)[C@@H](NC(=O)[C@@H]1CCCN1)C(C)C)C(=O)N[C@@H](CCC(=O)O)C(=O)N[C@@H](C)C(=O)N[C@@H](CC(C)C)C(=O)N[C@@H](CCCCN)C(=O)N[C@@H](CCC(N)=O)C(=O)N[C@@H](CCCCN)C(=O)N[C@@H](CC(C)C)C(=O)N[C@@H](CCCCN)C(=O)O [compound 114, PVLDEFREKLNEXMEALKQKLK] (H-PVLDEFREKLNE[Aib]MEALKQKLK-OH)",0
11,"CC(C)C[C@H](NC(=O)[C@H](C)NC(=O)[C@H](CCC(=O)O)NC(=O)[C@H](CC(C)C)NC(=O)C(C)(C)NC(=O)[C@H](CCC(=O)O)NC(=O)[C@H](CC(N)=O)NC(=O)[C@H](CC(C)C)NC(=O)[C@H](CCCCN)NC(=O)[C@H](CCC(=O)O)NC(=O)[C@H](CCCNC(=N)N)NC(=O)[C@H](Cc1ccccc1)NC(=O)[C@H](CCC(=O)O)NC(=O)[C@H](CC(=O)O)NC(=O)[C@H](CC(C)C)NC(=O)[C@H](CCCCN)NC(=O)[C@@H]1CCCN1)C(=O)N[C@@H](CCCCN)C(=O)N[C@@H](CCC(N)=O)C(=O)N[C@@H](CCCCN)C(=O)N[C@@H](CC(C)C)C(=O)N[C@@H](CCCCN)C(=O)O [compound 115, PKLDEFREKLNEXLEALKQKLK] (H-PKLDEFREKLNE[Aib]LEALKQKLK-OH)",0
